Experimental data taken from article PMC6017736, “Indole-3-Carbonitriles as DYRK1A Inhibitors by Fragment-Based Drug Design” (Molecules : A Journal of Synthetic Chemistry and Natural …, 2018).
pIC50: −log10 of the molar value. Marks after values point to notes of the source that are not given here.

Key:
GSK-3 = experiment: Protein kinase assay ([γ-33P]-ATP, GS-1 substrate), GSK-3; conditions: for pIC50: read-out: IC50 GSK3, 15 µM ATP
DYRK1B [1] = target: DYRK1B (Homo sapiens, UniProt Q9Y463); experiment: Protein kinase assay ([γ-33P]-ATP, RS peptide substrate), DYRK1B; assay type: biochemical; conditions: 15 µM ATP; read-out: IC50 DYRK 1B
Protocol: (§1) DYRK1A, 1B, 2, 3 (human, recombinant, expressed in E. coli as GST fusion proteins) and CLK1, 2, 3, and 4 (mouse, recombinant, expressed in E. coli as GST fusion proteins) were assayed as described for GSK-3 in Buffer A (supplemented extemporaneously with 0.15 mg BSA/mL + 1 mM DTT) with 1 µg of RS peptide ([…]) as a substrate.

DYRK3 = target: T1, DYRK3 (Homo sapiens, UniProt O43781); experiment: Protein kinase assay ([γ-33P]-ATP, RS peptide substrate), DYRK3; assay type: biochemical; conditions: for pIC50: 15 µM ATP; for inhibition at 10 µM: 10 µM compound, read-out: Inhibition at 10 µM DYRK3 (class symbol)
T1 sequence (O43781 1-588): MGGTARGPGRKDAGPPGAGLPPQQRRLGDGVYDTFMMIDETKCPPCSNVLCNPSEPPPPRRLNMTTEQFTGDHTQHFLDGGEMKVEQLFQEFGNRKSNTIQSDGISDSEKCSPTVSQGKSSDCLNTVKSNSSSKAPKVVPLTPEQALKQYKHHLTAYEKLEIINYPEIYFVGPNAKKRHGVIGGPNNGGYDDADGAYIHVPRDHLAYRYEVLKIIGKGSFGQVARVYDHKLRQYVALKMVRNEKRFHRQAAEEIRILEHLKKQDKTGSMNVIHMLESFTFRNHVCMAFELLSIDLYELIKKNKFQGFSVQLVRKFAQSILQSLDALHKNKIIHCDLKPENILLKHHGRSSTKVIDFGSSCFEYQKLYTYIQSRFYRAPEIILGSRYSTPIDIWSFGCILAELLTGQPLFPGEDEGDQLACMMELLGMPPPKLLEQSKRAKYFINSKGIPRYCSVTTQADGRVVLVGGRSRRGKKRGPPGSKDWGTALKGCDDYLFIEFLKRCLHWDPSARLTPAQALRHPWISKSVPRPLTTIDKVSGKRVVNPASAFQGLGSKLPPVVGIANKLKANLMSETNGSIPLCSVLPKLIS
Protocol: as §1

CLK3 = CLK3 (Mus musculus, UniProt O35492); experiment: Protein kinase assay ([γ-33P]-ATP, RS peptide substrate), CLK3; assay type: biochemical; conditions: for pIC50: 15 µM ATP; for inhibition at 10 µM: 10 µM compound, read-out: Inhibition at 10 µM CLK3 (class symbol)
Protocol: as §1

CLK4 = CLK4 (Mus musculus, UniProt O35493); experiment: Protein kinase assay ([γ-33P]-ATP, RS peptide substrate), CLK4; assay type: biochemical; conditions: 15 µM ATP
Protocol: as §1

[2] = Kinetic solubility, laser nephelometry; assay type: physicochemical; conditions: phosphate buffer pH 7.4, nephelometry
Protocol: The kinetic solubility was determined using laser nephelometry. A stock solution of the test compounds in DMSO was prepared and further diluted with DMSO to achieve a dilution series of 8–12 solutions with different concentrations. The DMSO solutions (2 µL) were placed in a row on a 96-well plate and diluted with aqueous phosphate buffer pH 7.4 (198 µL). The well plate was scanned by a nephelometer (Nephelostar Plus, BMG Labtech, Ortenberg, Germany). Unsolved particles scatter the laser light which is detected by the nephelometer. The intensity of the scattered light is proportional to the particle concentration in the suspension. The intensity of the scattered light was plotted versus the concentration to obtain a kick off curve. The concentration at which the compounds began to precipitate was directly read out from the kick off curve.

DYRK2 = target: T2, DYRK2 (Homo sapiens, UniProt Q92630); experiment: Protein kinase assay ([γ-33P]-ATP, RS peptide substrate), DYRK2; assay type: biochemical; conditions: for pIC50: 15 µM ATP; for inhibition at 10 µM: 10 µM compound, read-out: Inhibition at 10 µM DYRK2 (class symbol)
T2 sequence (Q92630 1-601): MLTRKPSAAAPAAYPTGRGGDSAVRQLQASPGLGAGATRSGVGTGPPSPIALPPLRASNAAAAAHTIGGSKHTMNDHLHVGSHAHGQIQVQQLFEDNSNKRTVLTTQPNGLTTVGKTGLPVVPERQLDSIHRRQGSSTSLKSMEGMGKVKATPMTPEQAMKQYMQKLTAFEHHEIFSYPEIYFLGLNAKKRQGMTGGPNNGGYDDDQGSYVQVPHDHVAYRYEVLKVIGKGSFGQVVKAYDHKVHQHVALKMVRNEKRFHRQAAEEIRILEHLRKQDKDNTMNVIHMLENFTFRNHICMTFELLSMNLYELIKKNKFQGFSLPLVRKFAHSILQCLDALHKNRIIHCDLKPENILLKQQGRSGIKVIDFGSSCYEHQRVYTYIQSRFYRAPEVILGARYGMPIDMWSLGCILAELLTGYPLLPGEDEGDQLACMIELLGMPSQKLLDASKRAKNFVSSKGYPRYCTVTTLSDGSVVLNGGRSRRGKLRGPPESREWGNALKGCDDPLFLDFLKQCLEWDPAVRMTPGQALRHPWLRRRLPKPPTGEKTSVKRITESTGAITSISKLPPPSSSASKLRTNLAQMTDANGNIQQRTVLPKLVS
Protocol: as §1

CLK2 = CLK2 (Mus musculus, UniProt O35491); experiment: Protein kinase assay ([γ-33P]-ATP, RS peptide substrate), CLK2; assay type: biochemical; conditions: 15 µM ATP
Protocol: as §1

[3] = Thermodynamic solubility, shake-flask method with HPLC quantification; assay type: physicochemical; conditions: phosphate buffer pH 7.4, 25 °C
Protocol: For solubility assays an aqueous phosphate buffer pH 7.4 was used. The buffer was prepared by dissolving Na2HPO4 × 2 H2O (298 mg), KH2PO4 (19 mg) and NaCl (800 mg) in water (100 mL). The pH was adjusted to 7.4 by addition of hydrochloric acid. The thermodynamic solubility was determined using a shake-flask method with quantification by a HPLC method. The test compounds (500 µg) were incubated with aqueous phosphate buffer pH 7.4 (400 µL) in sealed Whatman MiniUniPrep vials (GE Healthcare, Freiburg, Germany). The mixtures were shaken at 25 °C and 400 rpm for 24–96 h (IKA KS 3000 ic control, IKA-Werke, Staufen, Germany). After 24 h, 48 h and 72 h, the mixtures were visually inspected for remaining solids and the solids were filtered off. The concentrations in the resulting saturated solutions were quantified by isocratic HPLC using calibration with external standard. If equilibrium was not reached after 72 h, solubility of a further sample was determined after 96 h. For calibration, a stock solution of 10 mM of the test compounds in DMSO was prepared and the stock solution was diluted with ACN to suitable concentrations. The AUC at the wavelength maxima was used for quantification.

CLK1 = CLK1 (Mus musculus, UniProt P22518); experiment: Protein kinase assay ([γ-33P]-ATP, RS peptide substrate), CLK1; assay type: biochemical; conditions: for pIC50: 15 µM ATP
Protocol: as §1

[4] = Cytotoxicity, cell viability by tetrazolium dye assay (XTT assay); assay type: cell-based; conditions: human, HeLa cells, read-out: Viability of treated HeLa cells relative to control cells
Protocol: To evaluate the applicability of the 2-substituted indole-3-carbonitrile compounds in cell culture experiments, we assessed toxicity of 6f, 6h, 6s and 13b on HeLa cells by viability assays (Table 4).
The inhibitors were added to the cultured cells from stock solutions in DMSO to the desired final concentration. For cytotoxicity assays, HeLa cells were grown in 96-well plates (20,000–30,000 cells per well) and incubated with the test compounds for 3 days before cell viability was evaluated with the help of a tetrazolium dye assay (XTT assay, AppliChem GmbH, Darmstadt, Germany).

DYRK1A [5] = target: T3, DYRK1A (Homo sapiens, UniProt Q13627); experiment: Ligand-lipophilicity efficiency (pIC50 minus calculated logP)
Protocol: All new compounds were evaluated based on their physicochemical properties regarding Lipinski’s rule of five and the ligand-lipophilicity efficiency (LLE). Both concepts are used to assess the druglikeness of drug development candidates. […] LLE is calculated from pIC50 minus calculated logP [46].

DYRK1A [6] = target: T3, DYRK1A; experiment: Protein kinase assay ([γ-33P]-ATP, RS peptide substrate), DYRK1A; assay type: biochemical; conditions: for pIC50: 15 µM ATP, read-out: IC50 DYRK 1A
[7] = test system: DYRK1A (phosphorylation of T434 in SF3B1) in HeLa cells; experiment: Inhibition of endogenous DYRK1A activity in HeLa cells (phosphorylation of T434 in GFP-SF3B1-NT, Western blot); assay type: cell-based
DYRK1B [8] = test system: DYRK1B; design: method as in PMID 27766861, PMID 25268714, PMID 25264830; conditions: cited from earlier work
DYRK1A [9] = conditions: read-out: IC50 DYRK1A; cited from earlier work
[10] = test system: DYRK1A-mediated tau phosphorylation and Aβ production; design: method as in PMID 25556849; conditions: cellular; cited from earlier work
[11] = pIC50 (DYRK1A) minus calculated logP

Chain of DYRK1B (Q9Y463 whole entry, the tested form may be a part): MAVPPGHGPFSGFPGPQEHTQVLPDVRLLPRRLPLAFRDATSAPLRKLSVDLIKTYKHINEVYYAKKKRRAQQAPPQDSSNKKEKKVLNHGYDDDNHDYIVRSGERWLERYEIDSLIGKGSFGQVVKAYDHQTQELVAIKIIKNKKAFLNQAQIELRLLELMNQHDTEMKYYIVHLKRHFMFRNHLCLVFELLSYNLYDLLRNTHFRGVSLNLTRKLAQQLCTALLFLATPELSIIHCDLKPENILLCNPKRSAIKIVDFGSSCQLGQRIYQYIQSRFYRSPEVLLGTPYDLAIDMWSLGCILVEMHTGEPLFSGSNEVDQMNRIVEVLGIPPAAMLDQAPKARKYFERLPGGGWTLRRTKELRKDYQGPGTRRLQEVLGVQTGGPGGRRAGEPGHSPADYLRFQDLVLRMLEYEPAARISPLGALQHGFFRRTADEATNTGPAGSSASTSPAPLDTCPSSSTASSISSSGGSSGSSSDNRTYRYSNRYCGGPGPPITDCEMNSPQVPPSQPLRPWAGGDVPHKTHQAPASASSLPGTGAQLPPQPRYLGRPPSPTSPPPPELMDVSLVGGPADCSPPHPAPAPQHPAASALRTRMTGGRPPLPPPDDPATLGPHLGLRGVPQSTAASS
Chain of CLK3 (O35492 whole entry): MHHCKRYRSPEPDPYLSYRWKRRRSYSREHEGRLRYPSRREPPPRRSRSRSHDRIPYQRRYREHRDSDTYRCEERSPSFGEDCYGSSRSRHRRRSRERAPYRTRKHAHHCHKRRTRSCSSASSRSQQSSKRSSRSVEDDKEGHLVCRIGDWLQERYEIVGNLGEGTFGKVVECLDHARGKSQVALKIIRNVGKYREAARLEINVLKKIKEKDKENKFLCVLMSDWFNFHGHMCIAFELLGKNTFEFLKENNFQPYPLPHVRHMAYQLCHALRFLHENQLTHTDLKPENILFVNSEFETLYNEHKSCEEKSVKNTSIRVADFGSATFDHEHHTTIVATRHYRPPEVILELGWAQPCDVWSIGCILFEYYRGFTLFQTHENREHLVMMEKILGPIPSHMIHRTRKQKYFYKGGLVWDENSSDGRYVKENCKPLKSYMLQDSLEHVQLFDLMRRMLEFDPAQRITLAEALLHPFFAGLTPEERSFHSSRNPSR
Chain of CLK1 (P22518 whole entry): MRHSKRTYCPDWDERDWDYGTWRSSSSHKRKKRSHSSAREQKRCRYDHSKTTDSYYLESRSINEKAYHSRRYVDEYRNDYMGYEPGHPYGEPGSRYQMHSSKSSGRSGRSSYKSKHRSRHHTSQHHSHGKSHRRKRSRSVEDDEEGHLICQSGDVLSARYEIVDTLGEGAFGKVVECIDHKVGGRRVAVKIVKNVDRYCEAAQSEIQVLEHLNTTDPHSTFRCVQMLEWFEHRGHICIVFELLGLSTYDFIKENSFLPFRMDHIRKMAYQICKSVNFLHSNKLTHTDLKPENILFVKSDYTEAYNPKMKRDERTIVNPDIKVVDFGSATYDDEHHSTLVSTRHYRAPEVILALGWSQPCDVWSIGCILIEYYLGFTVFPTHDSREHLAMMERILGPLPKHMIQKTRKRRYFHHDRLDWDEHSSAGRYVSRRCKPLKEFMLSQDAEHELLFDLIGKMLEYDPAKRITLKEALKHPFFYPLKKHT
Chain of CLK4 (O35493 whole entry): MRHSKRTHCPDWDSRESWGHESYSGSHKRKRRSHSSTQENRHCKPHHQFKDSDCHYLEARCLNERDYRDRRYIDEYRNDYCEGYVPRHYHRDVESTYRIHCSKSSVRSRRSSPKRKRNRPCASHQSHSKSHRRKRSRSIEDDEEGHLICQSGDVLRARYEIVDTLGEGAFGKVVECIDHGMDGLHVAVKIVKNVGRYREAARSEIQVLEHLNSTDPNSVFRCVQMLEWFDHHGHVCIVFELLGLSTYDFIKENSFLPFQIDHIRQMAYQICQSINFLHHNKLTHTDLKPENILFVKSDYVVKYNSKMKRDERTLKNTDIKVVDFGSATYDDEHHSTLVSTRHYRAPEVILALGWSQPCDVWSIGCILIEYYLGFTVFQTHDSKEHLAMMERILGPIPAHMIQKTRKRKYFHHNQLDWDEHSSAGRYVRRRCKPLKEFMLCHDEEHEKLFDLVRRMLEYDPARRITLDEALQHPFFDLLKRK
Chain of CLK2 (O35491 whole entry): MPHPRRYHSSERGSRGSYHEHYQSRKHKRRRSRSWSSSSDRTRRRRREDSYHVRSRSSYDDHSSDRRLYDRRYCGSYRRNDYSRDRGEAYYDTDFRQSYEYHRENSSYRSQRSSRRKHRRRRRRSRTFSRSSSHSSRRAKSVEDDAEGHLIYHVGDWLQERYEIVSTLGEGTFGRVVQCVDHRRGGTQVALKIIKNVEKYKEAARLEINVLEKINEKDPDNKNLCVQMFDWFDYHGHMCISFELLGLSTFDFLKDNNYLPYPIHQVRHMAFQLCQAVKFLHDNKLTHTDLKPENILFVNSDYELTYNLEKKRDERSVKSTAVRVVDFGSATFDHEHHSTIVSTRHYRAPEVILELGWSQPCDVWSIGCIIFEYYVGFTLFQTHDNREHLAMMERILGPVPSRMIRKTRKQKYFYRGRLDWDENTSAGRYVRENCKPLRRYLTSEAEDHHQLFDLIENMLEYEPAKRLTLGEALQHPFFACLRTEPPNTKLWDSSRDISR

Row | Compound | pIC50 (DYRK1B [1]) | pIC50 (DYRK3) | pIC50 (CLK4) | Sexp., kin., pH 7.4 [2] | pIC50 (DYRK2) | pIC50 (CLK2) | Sexp., therm., pH 7.4 [3] | pIC50 (CLK1) | viability at 3 days, 1 µM [4] [%] | viability at 3 days, 3 µM [4] [%] | viability at 3 days, 10 µM [4] [%] | inhibition at 10 µM (CLK3) [%] | LLE (DYRK1A [5]; Table S2) | LLE (DYRK1A [5]; [11]) | pIC50 (DYRK1A [6]) | also measured
1 | N#Cc1c[nH]c2c(Cl)cccc12 [Compound 6a, 7-Chloro-1H-indole-3-carbonitrile] | < 5.00 | < 5.00 | < 5.00 | 116 ± 14 µM | < 5.00 | < 5.00 | 143 ± 6.3^c µM | – | – | – | – | – | – | – | – | pIC50 (GSK-3): < 5.00; pIC50 (CLK3): < 5.00
2 | N#Cc1c(-c2ccccc2)[nH]c2c(I)cccc12 [Compound 6h, 7-Iodo-2-phenyl-1H-indole-3-carbonitrile] | 6.24 | < 5.00 | 7.30 | 4.57 (4.11–5.03) µM | < 5.00 | 5.70 | <0.5 µM | 7.10 | 97 | 97 | 87 | – | – | – | – | pIC50 (CLK3): < 5.00
3 | N#Cc1c(C2CC2)[nH]c2c(I)cccc12 [Compound 6r, 2-Cyclopropyl-7-iodo-1H-indole-3-carbonitrile] | 6.30 | < 5.00 | 7.00 | 38.1 (37.6–38.6) µM | 5.10 | 6.00 | <0.5 µM | 6.96 | – | – | – | < 20 | 3.37 | 3.37 | 6.85 | Inhibition at 10 µM GSK3 (class symbol) (GSK-3; 10 µM compound): - (-: less than 20% inhibition at 10 µM, IC50 was not determined)
4 | N#Cc1c(C2CCCC2)[nH]c2c(I)cccc12 [Compound 6s, 2-Cyclopentyl-7-iodo-1H-indole-3-carbonitrile] | 6.22 | – | 7.00 | 16.2 (15.2–17.3) µM | – | 6.00 | <0.5 µM | 6.92 | 99 | 100 | 82 | < 20 | 2.78 | 2.78 | 7.15 | pIC50 (GSK-3): < 5.00; inhibition at 10 µM (DYRK3): < 20%; pIC50 ([7]; Homo sapiens, HeLa cells expressing GFP-SF3B1-NT, 18 h, read-out: IC50 inhibition of endogenous DYRK1A activity in HeLa cells (pT434 SF3B1)): 6.28; inhibition at 10 µM (DYRK2): < 20%
5 | N#Cc1cn(Cc2ccccc2)c2c(Br)cccc12 [Compound 13b, 1-Benzyl-7-bromo-1H-indole-3-carbonitrile] | – | – | – | – | – | – | – | – | 94 | 94 | 66 | – | – | – | – | remaining activity at 10 µM (CLK1; 10 µM compound, compared to controls, read-out: Residual Activity at 10 µM CLK1): 53%; Residual Activity at 10 µM GSK3 (GSK-3; 10 µM compound, compared to controls): 114%; remaining activity at 10 µM (DYRK1A [6]; 10 µM compound, compared to controls, read-out: Residual Activity at 10 µM DYRK 1A): 81%; Effect on the phosphorylation of SF3B1 on T434 ([7]; HeLa cells, negative control): did not affect
6 | Cn1c(-c2ccccc2)c(C#N)c2cccc(I)c21 [Compound 13f, 7-Iodo-1-methyl-2-phenyl-1H-indole-3-carbonitrile] | 5.68 | – | 6.00 | 37.5 (36.6–38.4) µM | – | < 5.00 | <0.5 µM | 6.22 | – | – | – | < 20 | 1.54 | 1.54 | 6.19 | Inhibition at 10 µM GSK3 (class symbol) (GSK-3; 10 µM compound): - (-: less than 20% inhibition at 10 µM, IC50 was not determined); inhibition at 10 µM (DYRK3): < 20%; inhibition at 10 µM (DYRK2): < 20%
7 | COC(=N)c1nc2ccc3ncnc(Nc4ccc(OC)cc4F)c3c2s1 [EHT 5372] | – | – | – | – | – | – | – | – | – | – | – | – | – | – | – | pIC50 (DYRK1B [8]): […]; pIC50 (DYRK1A [9]): 9.66; pIC50 [10]: 5.93 to 5.97
